Tested on: secretory IgA and serum IgG antibodies
Assay: Oral immunization with OVA nanoparticles, ELISA of secretory IgA and serum IgG antibodies
Assay type: in vivo, male Sprague-Dawley adult rats
Settings: immunizations at week 0 and week 4
Experimental: Once the particles were generated and washed they were introduced orally into experimental animals (male Sprague-Dawley adult rats (200-250 g wt., 12-15 weeks old, Harlow). Ten animals were used for each group. About 1 mg of dry weight of nanoparticles in the reaction mixture has been administered orally into the stomach of each animal. The nonloaded (#8) nanoparticles were also administered to control animals, in addition to a soluble antigen (OVA)(#9). ELISA assay of secretory IgA and serum IgG antibodies was carried out as described [Challacombe, et al., Enhanced secretory IgA and systemic IgG antibody response after oral immunization with biodegradable microcapsules containing antigen. Immunology 76: 164-168 (1992)]. Primary and secondary immunization protocol was used, consisting of two immunizations at week 0 and at week 4. […] In another set of experiments nonloaded nanoparticles (no OVA) were separately tested in simulated gastric (pH 2) and intestinal (pH 8.3) solutions for their stability. […] Similar results in terms of antibodies and release characteristics were obtained for tetanus toxoid antigen.

“ovalbumin (egg albumin) [Sol OVA, soluble ovalbumin antigen from Sigma]” was tested, and the “Response to oral delivery of nanoparticulate OVA antigen, Mean” value (Day 28, rats) was 75.0 and the “Response to oral delivery of nanoparticulate OVA antigen, Mean” value (Day 56, rats) was 550.0.

From patent US6589563B2 (Nanodelivery, Inc., priority 1999, dated 2003)
